PubChem BioAssay AID1918996 (Molecular Pharmacology Branch, DTP, NCI, 2023)

System: 349418-098-R-PDC complex spheroid growth
Assay: Anticancer human tumor 349418-098-R-PDC patient-derived lung adenocarcinoma cell line growth inhibition [AhR]
Conditions: for IC50: curve of first compound; for viability, T/C: stronger effect = lower value
In short: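 Complex tumor spheroids co-cultured with HUVEC and human MSC stroma; AhR antagonists tested in combination with standard-of-care and investigational agents. Top concentration at or near clinical Cmax (else 10 microM), half-log dilutions; growth expressed as percent test/control.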

[1] = second compound 0.1 µM, first compound 0.000949 µM
[2] = second compound 0.1 µM, first compound 0.003 µM
[3] = second compound 0.1 µM, first compound 0.00949 µM
[4] = second compound 0.1 µM, first compound 0.03 µM
[5] = second compound 0.1 µM, first compound 0.0949 µM
[6] = second compound 0.1 µM, first compound 0.3 µM
[7] = second compound 0.316 µM, first compound 0.000949 µM
[8] = second compound 0.316 µM, first compound 0.003 µM
[9] = second compound 0.316 µM, first compound 0.00949 µM
[10] = second compound 0.316 µM, first compound 0.03 µM
[11] = second compound 0.316 µM, first compound 0.0949 µM
[12] = second compound 0.316 µM, first compound 0.3 µM
[13] = second compound 1 µM, first compound 0.000949 µM
[14] = second compound 1 µM, first compound 0.003 µM
[15] = second compound 1 µM, first compound 0.00949 µM
[16] = second compound 1 µM, first compound 0.03 µM
[17] = second compound 1 µM, first compound 0.0949 µM
[18] = second compound 1 µM, first compound 0.3 µM
[19] = second compound 3.16 µM, first compound 0.000949 µM
[20] = second compound 3.16 µM, first compound 0.003 µM
[21] = second compound 3.16 µM, first compound 0.00949 µM
[22] = second compound 3.16 µM, first compound 0.03 µM
[23] = second compound 3.16 µM, first compound 0.0949 µM
[24] = second compound 3.16 µM, first compound 0.3 µM
[25] = second compound 10 µM, first compound 0.000949 µM
[26] = second compound 10 µM, first compound 0.003 µM
[27] = second compound 10 µM, first compound 0.00949 µM
[28] = second compound 10 µM, first compound 0.03 µM
[29] = second compound 10 µM, first compound 0.0949 µM
[30] = second compound 10 µM, first compound 0.3 µM
[31] = second compound 0.1 µM, first compound 0.0316 µM
[32] = second compound 0.1 µM, first compound 0.1 µM
[33] = second compound 0.1 µM, first compound 0.316 µM
[34] = second compound 0.1 µM, first compound 1 µM
[35] = second compound 0.1 µM, first compound 3.16 µM
[36] = second compound 0.1 µM, first compound 10 µM
[37] = second compound 0.316 µM, first compound 0.0316 µM
[38] = second compound 0.316 µM, first compound 0.1 µM
[39] = second compound 0.316 µM, first compound 0.316 µM
[40] = second compound 0.316 µM, first compound 1 µM
[41] = second compound 0.316 µM, first compound 3.16 µM
[42] = second compound 0.316 µM, first compound 10 µM
[43] = second compound 1 µM, first compound 0.0316 µM
[44] = second compound 1 µM, first compound 0.1 µM
[45] = second compound 1 µM, first compound 0.316 µM
[46] = second compound 1 µM, first compound 1 µM
[47] = second compound 1 µM, first compound 3.16 µM
[48] = second compound 1 µM, first compound 10 µM
[49] = second compound 3.16 µM, first compound 0.0316 µM
[50] = second compound 3.16 µM, first compound 0.1 µM
[51] = second compound 3.16 µM, first compound 0.316 µM
[52] = second compound 3.16 µM, first compound 1 µM
[53] = second compound 3.16 µM, first compound 3.16 µM
[54] = second compound 3.16 µM, first compound 10 µM
[55] = second compound 10 µM, first compound 0.0316 µM
[56] = second compound 10 µM, first compound 0.1 µM
[57] = second compound 10 µM, first compound 0.316 µM
[58] = second compound 10 µM, first compound 1 µM
[59] = second compound 10 µM, first compound 3.16 µM
[60] = second compound 10 µM, first compound 10 µM
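Also: spheroids exposed to agents for seven days before luminescence viability read.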
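For viability, T/C in this document: spheroids also contain HUVEC endothelial cells and human MSC stroma.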

## CC(C)CC(NC(=O)C(Cc1ccccc1)NC(=O)c1cnccn1)B(O)O (stereo not given) + Cc1ccccc1N=Nc1ccc(NC(=O)c2ccnn2C)c(C)c1
Second compound 0.1 µM
  IC50: < 0.949 nM
Second compound 0.316 µM
  IC50: < 0.949 nM
Second compound 1 µM
  IC50: 1.18 nM
Second compound 3.16 µM
  IC50: 1.06 nM
Second compound 10 µM
  IC50: < 0.949 nM
[1]
  viability, T/C: 46.8%
[2]
  viability, T/C: 11.1%
[3]
  viability, T/C: 3.13%
[4]
  viability, T/C: 1.55%
[5]
  viability, T/C: 1.77%
[6]
  viability, T/C: 0.98%
[7]
  viability, T/C: 48.2%
[8]
  viability, T/C: 11.7%
[9]
  viability, T/C: 2.73%
[10]
  viability, T/C: 1.61%
[11]
  viability, T/C: 1.03%
[12]
  viability, T/C: 1.37%
[13]
  viability, T/C: 58.5%
[14]
  viability, T/C: 13.4%
[15]
  viability, T/C: 2.69%
[16]
  viability, T/C: 1.87%
[17]
  viability, T/C: 1.39%
[18]
  viability, T/C: 1.15%
[19]
  viability, T/C: 53.7%
[20]
  viability, T/C: 14%
[21]
  viability, T/C: 2.77%
[22]
  viability, T/C: 1.76%
[23]
  viability, T/C: 1.72%
[24]
  viability, T/C: 1.32%
[25]
  viability, T/C: 41.6%
[26]
  viability, T/C: 14.5%
[27]
  viability, T/C: 2.75%
[28]
  viability, T/C: 1.8%
[29]
  viability, T/C: 1.43%
[30]
  viability, T/C: 1.45%

## CCc1c2c(nc3ccc(O)cc13)-c1cc3c(c(=O)n1C2)COC(=O)[C@]3(O)CC + Cc1ccccc1N=Nc1ccc(NC(=O)c2ccnn2C)c(C)c1
Second compound 0.1 µM
  IC50: 3.8 nM
Second compound 0.316 µM
  IC50: < 0.949 nM
Second compound 1 µM
  IC50: < 0.949 nM
Second compound 3.16 µM
  IC50: < 0.949 nM
Second compound 10 µM
  IC50: < 0.949 nM
[1]
  viability, T/C: 75.5%
[2]
  viability, T/C: 57.2%
[3]
  viability, T/C: 22.3%
[4]
  viability, T/C: 12.3%
[5]
  viability, T/C: 8.18%
[6]
  viability, T/C: 7.18%
[7]
  viability, T/C: 44.2%
[8]
  viability, T/C: 32.8%
[9]
  viability, T/C: 21%
[10]
  viability, T/C: 9.78%
[11]
  viability, T/C: 7.84%
[12]
  viability, T/C: 5.78%
[13]
  viability, T/C: 29.9%
[14]
  viability, T/C: 27.3%
[15]
  viability, T/C: 19.7%
[16]
  viability, T/C: 10.3%
[17]
  viability, T/C: 7.94%
[18]
  viability, T/C: 6.46%
[19]
  viability, T/C: 34.6%
[20]
  viability, T/C: 33.5%
[21]
  viability, T/C: 15.8%
[22]
  viability, T/C: 10%
[23]
  viability, T/C: 7.13%
[24]
  viability, T/C: 6.47%
[25]
  viability, T/C: 37.7%
[26]
  viability, T/C: 27.6%
[27]
  viability, T/C: 15.2%
[28]
  viability, T/C: 10.4%
[29]
  viability, T/C: 7.83%
[30]
  viability, T/C: 6.4%

## Nc1ccccc1NC(=O)c1ccc(CNC(=O)OCc2cccnc2)cc1 + Cc1ccccc1N=Nc1ccc(NC(=O)c2ccnn2C)c(C)c1
Second compound 0.1 µM
  IC50: 1260 nM
Second compound 0.316 µM
  IC50: 999 nM
Second compound 1 µM
  IC50: 992 nM
Second compound 3.16 µM
  IC50: 1010 nM
Second compound 10 µM
  IC50: 919 nM
[31]
  viability, T/C: 104%
[32]
  viability, T/C: 97.7%
[33]
  viability, T/C: 75.7%
[34]
  viability, T/C: 64.6%
[35]
  viability, T/C: 19.4%
[36]
  viability, T/C: 5.78%
[37]
  viability, T/C: 84.6%
[38]
  viability, T/C: 85.3%
[39]
  viability, T/C: 72%
[40]
  viability, T/C: 52.1%
[41]
  viability, T/C: 17.2%
[42]
  viability, T/C: 5.9%
[43]
  viability, T/C: 97.7%
[44]
  viability, T/C: 76%
[45]
  viability, T/C: 87.2%
[46]
  viability, T/C: 47.6%
[47]
  viability, T/C: 18.5%
[48]
  viability, T/C: 6.58%
[49]
  viability, T/C: 86.5%
[50]
  viability, T/C: 82.5%
[51]
  viability, T/C: 76.5%
[52]
  viability, T/C: 50.1%
[53]
  viability, T/C: 18.5%
[54]
  viability, T/C: 5.98%
[55]
  viability, T/C: 66.4%
[56]
  viability, T/C: 60.9%
[57]
  viability, T/C: 68.1%
[58]
  viability, T/C: 48%
[59]
  viability, T/C: 17%
[60]
  viability, T/C: 8.83%

## O=C(c1cc(Cc2n[nH]c(=O)c3ccccc23)ccc1F)N1CCN(C(=O)C2CC2)CC1 + Cc1ccccc1N=Nc1ccc(NC(=O)c2ccnn2C)c(C)c1
Second compound 0.1 µM
  IC50: 2020 nM
Second compound 0.316 µM
  IC50: 6200 nM
Second compound 1 µM
  IC50: 2810 nM
Second compound 3.16 µM
  IC50: 661 nM
Second compound 10 µM
  IC50: 1430 nM
[31]
  viability, T/C: 81.3%
[32]
  viability, T/C: 73.2%
[33]
  viability, T/C: 91.4%
[34]
  viability, T/C: 62.1%
[35]
  viability, T/C: 44.9%
[36]
  viability, T/C: 39.6%
[37]
  viability, T/C: 98%
[38]
  viability, T/C: 89%
[39]
  viability, T/C: 108%
[40]
  viability, T/C: 64%
[41]
  viability, T/C: 66.3%
[42]
  viability, T/C: 41.4%
[43]
  viability, T/C: 106%
[44]
  viability, T/C: 82.4%
[45]
  viability, T/C: 69.7%
[46]
  viability, T/C: 62.8%
[47]
  viability, T/C: 49.4%
[48]
  viability, T/C: 39.9%
[49]
  viability, T/C: 76.9%
[50]
  viability, T/C: 69.9%
[51]
  viability, T/C: 63.4%
[52]
  viability, T/C: 41.8%
[53]
  viability, T/C: 41.3%
[54]
  viability, T/C: 43%
[55]
  viability, T/C: 56.4%
[56]
  viability, T/C: 53.1%
[57]
  viability, T/C: 50.9%
[58]
  viability, T/C: 60.1%
[59]
  viability, T/C: 38.8%
[60]
  viability, T/C: 31.4%
